Source: US6992079B2, “Substituted 11-phenyl-dibenzazepine compounds useful for the treatment or prevention of diseases characterized by abnormal cell proliferation” (President Fellows of Harvard College, priority 1997, dated 2006)
Where two headings read alike, the source gives them in different places.

What was measured:
Assay type in all cases: cell-based
NCI-H226 = conditions: NCI-H226, 48 h
T-47D = experiment: In-Vitro Testing SRB panel: Breast Cancer; conditions: 48 h
OVCAR-5 = experiment: In-Vitro Testing SRB panel: Ovarian Cancer; conditions: OVCAR-5, 48 h
RPMI-8226 = experiment: In-Vitro Testing SRB panel: Leukemia; conditions: RPMI-8226, 48 h
[1] = test system: panel of human cancer cells; experiment: In vitro screening, SRB, panel of 60 human cancer cell lines
PC-3 = experiment: In-Vitro Testing SRB panel: Prostate Cancer; conditions: PC-3, 48 h
SK-OV-3 = experiment: In-Vitro Testing SRB panel: Ovarian Cancer; conditions: SK-OV-3, 48 h
SN12C = experiment: In-Vitro Testing SRB panel: Renal Cancer; conditions: 48 h
OVCAR-8 = experiment: In-Vitro Testing SRB panel: Ovarian Cancer; conditions: OVCAR-8, 48 h
MDA-N = experiment: In-Vitro Testing SRB panel: Breast Cancer; conditions: 48 h
ROP-62 = conditions: 48 h
NCI-H23 = conditions: NCI-H23, 48 h
SK-MEL-2B = experiment: In-Vitro Testing SRB panel: Melanoma; conditions: 48 h
[2] = In-Vitro Testing SRB panel: Renal Cancer; conditions: 48 h
SF-268 = experiment: In-Vitro Testing SRB panel: CNS Cancer; conditions: SF-268, 48 h
HT29 = experiment: In-Vitro Testing SRB panel: Colon Cancer
SNB-19 = experiment: In-Vitro Testing SRB panel: CNS Cancer; conditions: SNB-19, 48 h
SW-620 = experiment: In-Vitro Testing SRB panel: Colon Cancer; conditions: SW-620, 48 h
[3] = Homo sapiens, read-out: LC50 (the source's name)

Compound: O=C(c1ccc([N+](=O)[O-])cc1)N1Cc2ccccc2C(c2ccccc2Cl)c2ccccc21 (centres unmarked) [Compound 28, N-(4′-Nitrobenzoyl)-11-(2′-chlorophenyl)-5,6-dihydro-11H-dibenz[b,e]azepine]
- GI50 (NCI-H226; Homo sapiens): 7.96 µM
- CC50 (NCI-H226; [3]): > 100 µM
- TGI (NCI-H226): >1.00E−04 Molar
- Percent Growth (NCI-H226; log10 conc −4.0 Molar): 33%
- Percent Growth (NCI-H226; log10 conc −5.0 Molar): 48%
- Percent Growth (NCI-H226; log10 conc −6.0 Molar): 66%
- Percent Growth (NCI-H226; log10 conc −7.0 Molar): 83%
- Percent Growth (NCI-H226; log10 conc −8.0 Molar): 90%
- GI50 (T-47D; Homo sapiens, T47D): 1.44 µM
- CC50 (T-47D; Homo sapiens, T47D, T-47D, read-out: LC50 (the source's name)): > 100 µM
- TGI (T-47D; T-47D): >1.00E−04 Molar
- Percent Growth (T-47D; T-47D, log10 conc −4.0 Molar): 26%
- Percent Growth (T-47D; T-47D, log10 conc −5.0 Molar): 21%
- Percent Growth (T-47D; T-47D, log10 conc −6.0 Molar): 55%
- Percent Growth (T-47D; T-47D, log10 conc −7.0 Molar): 90%
- Percent Growth (T-47D; T-47D, log10 conc −8.0 Molar): 95%
- GI50 (OVCAR-5; Homo sapiens): > 100 µM
- CC50 (OVCAR-5; [3]): > 100 µM
- TGI (OVCAR-5): >1.00E−04 Molar
- Percent Growth (OVCAR-5; log10 conc −4.0 Molar): 68%
- Percent Growth (OVCAR-5; log10 conc −5.0 Molar): 75%
- Percent Growth (OVCAR-5; log10 conc −6.0 Molar): 91%
- Percent Growth (OVCAR-5; log10 conc −7.0 Molar): 96%
- Percent Growth (OVCAR-5; log10 conc −8.0 Molar): 110%
- GI50 (RPMI-8226; Homo sapiens): 0.522 µM
- CC50 (RPMI-8226; [3]): > 100 µM
- TGI (RPMI-8226): >1.00E−04 Molar
- Percent Growth (RPMI-8226; log10 conc −4.0 Molar): 12%
- Percent Growth (RPMI-8226; log10 conc −5.0 Molar): 36%
- Percent Growth (RPMI-8226; log10 conc −6.0 Molar): 46%
- Percent Growth (RPMI-8226; log10 conc −7.0 Molar): 61%
- Percent Growth (RPMI-8226; log10 conc −8.0 Molar): 74%
- activity against the human cell panel [1]: exhibited activity against the human cell panel
- GI50 (PC-3; Homo sapiens): 0.501 µM
- CC50 (PC-3; [3]): > 100 µM
- TGI (PC-3): 9.10E−06 Molar
- Percent Growth (PC-3; log10 conc −4.0 Molar): −9%
- Percent Growth (PC-3; log10 conc −5.0 Molar): −2%
- Percent Growth (PC-3; log10 conc −6.0 Molar): 40%
- Percent Growth (PC-3; log10 conc −7.0 Molar): 74%
- Percent Growth (PC-3; log10 conc −8.0 Molar): 109%
- GI50 (SK-OV-3; Homo sapiens): 8.31 µM
- CC50 (SK-OV-3; [3]): > 100 µM
- TGI (SK-OV-3): >1.00E−04 Molar
- Percent Growth (SK-OV-3; log10 conc −4.0 Molar): 36%
- Percent Growth (SK-OV-3; log10 conc −5.0 Molar): 47%
- Percent Growth (SK-OV-3; log10 conc −6.0 Molar): 79%
- Percent Growth (SK-OV-3; log10 conc −7.0 Molar): 97%
- Percent Growth (SK-OV-3; log10 conc −8.0 Molar): 97%
- TGI (SN12C): >1.00E−04 Molar
- GI50 (SN12C; Homo sapiens): 4.52 µM
- CC50 (SN12C; [3]): > 100 µM
- Percent Growth (SN12C; log10 conc −4.0 Molar): 23%
- Percent Growth (SN12C; log10 conc −5.0 Molar): 36%
- Percent Growth (SN12C; log10 conc −6.0 Molar): 77%
- Percent Growth (SN12C; log10 conc −7.0 Molar): 103%
- Percent Growth (SN12C; log10 conc −8.0 Molar): 100%
- GI50 (OVCAR-8; Homo sapiens): 2.86 µM
- CC50 (OVCAR-8; [3]): > 100 µM
- TGI (OVCAR-8): >1.00E−04 Molar
- Percent Growth (OVCAR-8; log10 conc −4.0 Molar): 28%
- Percent Growth (OVCAR-8; log10 conc −5.0 Molar): 33%
- Percent Growth (OVCAR-8; log10 conc −6.0 Molar): 64%
- Percent Growth (OVCAR-8; log10 conc −7.0 Molar): 102%
- Percent Growth (OVCAR-8; log10 conc −8.0 Molar): 105%
- TGI (MDA-N): >1.00E−04 Molar
- GI50 (MDA-N; Homo sapiens): 1.17 µM
- CC50 (MDA-N; [3]): > 100 µM
- Percent Growth (MDA-N; log10 conc −4.0 Molar): 7%
- Percent Growth (MDA-N; log10 conc −5.0 Molar): 23%
- Percent Growth (MDA-N; log10 conc −6.0 Molar): 52%
- Percent Growth (MDA-N; log10 conc −7.0 Molar): 94%
- Percent Growth (MDA-N; log10 conc −8.0 Molar): 99%
- GI50 (ROP-62; Homo sapiens): 13.1 µM
- CC50 (ROP-62; Homo sapiens, ROP-62, read-out: LC50 (the source's name)): > 100 µM
- TGI (ROP-62; ROP-62): >1.00E−04 Molar
- Percent Growth (ROP-62; ROP-62, log10 conc −4.0 Molar): 38%
- Percent Growth (ROP-62; ROP-62, log10 conc −5.0 Molar): 52%
- Percent Growth (ROP-62; ROP-62, log10 conc −6.0 Molar): 60%
- Percent Growth (ROP-62; ROP-62, log10 conc −7.0 Molar): 89%
- Percent Growth (ROP-62; ROP-62, log10 conc −8.0 Molar): 91%
- GI50 (NCI-H23; Homo sapiens): 1.61 µM
- CC50 (NCI-H23; [3]): > 100 µM
- TGI (NCI-H23): >1.00E−04 Molar
- Percent Growth (NCI-H23; log10 conc −4.0 Molar): 41%
- Percent Growth (NCI-H23; log10 conc −5.0 Molar): 43%
- Percent Growth (NCI-H23; log10 conc −6.0 Molar): 52%
- Percent Growth (NCI-H23; log10 conc −7.0 Molar): 93%
- Percent Growth (NCI-H23; log10 conc −8.0 Molar): 100%
- GI50 (SK-MEL-2B; Homo sapiens): > 100 µM
- CC50 (SK-MEL-2B; Homo sapiens, SK-MEL-2B, read-out: LC50 (the source's name)): > 100 µM
- TGI (SK-MEL-2B; SK-MEL-2B): >1.00E−04 Molar
- Percent Growth (SK-MEL-2B; SK-MEL-2B, log10 conc −4.0 Molar): 50%
- Percent Growth (SK-MEL-2B; SK-MEL-2B, log10 conc −5.0 Molar): 56%
- Percent Growth (SK-MEL-2B; SK-MEL-2B, log10 conc −6.0 Molar): 72%
- Percent Growth (SK-MEL-2B; SK-MEL-2B, log10 conc −7.0 Molar): 97%
- Percent Growth (SK-MEL-2B; SK-MEL-2B, log10 conc −8.0 Molar): 39%
- TGI ([2]; DO-31): >1.00E−04 Molar
- Percent Growth ([2]; DO-31, log10 conc −4.0 Molar): 14%
- Percent Growth ([2]; DO-31, log10 conc −5.0 Molar): 28%
- Percent Growth ([2]; DO-31, log10 conc −6.0 Molar): 56%
- Percent Growth ([2]; DO-31, log10 conc −7.0 Molar): 111%
- Percent Growth ([2]; DO-31, log10 conc −8.0 Molar): 105%
- GI50 ([2]; Homo sapiens): 1.69 µM
- CC50 ([2]; Homo sapiens, DO-31, read-out: LC50 (the source's name)): > 100 µM
- GI50 (SF-268; Homo sapiens): 1.66 µM
- CC50 (SF-268; [3]): > 100 µM
- TGI (SF-268): >1.00E−04 Molar
- Percent Growth (SF-268; log10 conc −4.0 Molar): 19%
- Percent Growth (SF-268; log10 conc −5.0 Molar): 34%
- Percent Growth (SF-268; log10 conc −6.0 Molar): 55%
- Percent Growth (SF-268; log10 conc −7.0 Molar): 81%
- Percent Growth (SF-268; log10 conc −8.0 Molar): 94%
- TGI (HT29; HT29, 48 h): >1.00E−04 Molar
- Percent Growth (HT29; HT29, log10 conc −4.0 Molar, 48 h): 27%
- Percent Growth (HT29; HT29, log10 conc −5.0 Molar, 48 h): 27%
- Percent Growth (HT29; HT29, log10 conc −6.0 Molar, 48 h): 38%
- Percent Growth (HT29; HT29, log10 conc −7.0 Molar, 48 h): 78%
- Percent Growth (HT29; HT29, log10 conc −8.0 Molar, 48 h): 86%
- GI50 (HT29; Homo sapiens, HT-29, 48 h): 0.505 µM
- CC50 (HT29; Homo sapiens, HT-29, HT29, 48 h, read-out: LC50 (the source's name)): > 100 µM
- GI50 (SNB-19; Homo sapiens): 3.27 µM
- CC50 (SNB-19; [3]): > 100 µM
- TGI (SNB-19): >1.00E−04 Molar
- Percent Growth (SNB-19; log10 conc −4.0 Molar): 32%
- Percent Growth (SNB-19; log10 conc −5.0 Molar): 44%
- Percent Growth (SNB-19; log10 conc −6.0 Molar): 56%
- Percent Growth (SNB-19; log10 conc −7.0 Molar): 95%
- Percent Growth (SNB-19; log10 conc −8.0 Molar): 99%
- GI50 (SW-620; Homo sapiens): 7.13 µM
- CC50 (SW-620; [3]): > 100 µM
- TGI (SW-620): >1.00E−04 Molar
- Percent Growth (SW-620; log10 conc −4.0 Molar): 42%
- Percent Growth (SW-620; log10 conc −5.0 Molar): 47%
- Percent Growth (SW-620; log10 conc −6.0 Molar): 65%
- Percent Growth (SW-620; log10 conc −7.0 Molar): 94%
- Percent Growth (SW-620; log10 conc −8.0 Molar): 112%
